Test results taken from patent US9624228B2, “Inhibitors of ERK and methods of use” (KURA ONCOLOGY, INC., priority 2013, dated 2017).

Biological target: ERK2 enzyme (Homo sapiens (Human), UniProt P28482)
Test: Inhibition assay of ERK (Z'-LYTE kinase assay, Ser/Thr 3 peptide substrate)
Assay type: biochemical
Conditions: In vitro ERK2 enzyme, 100 μM ATP

Sequence of ERK2 enzyme (P28482 whole entry): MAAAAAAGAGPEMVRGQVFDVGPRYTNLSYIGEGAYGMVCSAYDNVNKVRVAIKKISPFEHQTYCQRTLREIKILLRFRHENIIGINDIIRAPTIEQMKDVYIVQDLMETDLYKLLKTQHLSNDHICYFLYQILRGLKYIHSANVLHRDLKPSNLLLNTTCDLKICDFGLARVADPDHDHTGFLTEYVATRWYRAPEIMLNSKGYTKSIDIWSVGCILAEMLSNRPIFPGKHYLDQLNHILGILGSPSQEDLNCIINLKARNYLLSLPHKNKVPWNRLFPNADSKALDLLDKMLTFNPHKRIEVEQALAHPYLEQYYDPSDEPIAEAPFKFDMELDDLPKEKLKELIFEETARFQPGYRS

| Structure (SMILES) | IC50 [nM] |
| --- | --- |
| Cc1cc(-c2n[nH]c3cc4c(cc23)CN([C@H](C)c2ccccc2)C(=O)N4)ccn1 [Compound 2, (R)-3-(2-methylpyridin-4-yl)-6-(1-phenylethyl)-5,6-dihydro-1H-pyrazolo[4,3-g]quinazolin-7(8H)-one] | < 50 |
| Cc1cc(-c2n[nH]c3cc4c(cc23)CN([C@@H]2CCC[C@H](NCc3ccccc3)C2)C(=O)N4)ccn1 [Compound 177] | < 50 |
| Cc1cc(-c2n[nH]c3cc4c(cc23)CN([C@@H]2CCCN(Cc3ccccc3Cl)C2)C(=O)N4)ccn1 [Compound 158] | < 50 |
| Cc1cc(-c2n[nH]c3cc4c(cc23)CN(CCN(C)C)C(=O)N4)ccn1 [Compound 46] | 50 to 250 |
| COc1ncc(-c2n[nH]c3cc4c(cc23)CN(CCc2ccc(F)cc2)C(=O)N4)cn1 [Compound 80] | < 50 |
| Cc1cc(-c2n[nH]c3cc4c(cc23)CN(Cc2ccc(C#N)cc2)C(=O)N4)ccn1 [Compound 39] | < 50 |
| Cc1cc(-c2n[nH]c3cc4c(cc23)CN([C@@H]2CCCN(C)C2)C(=O)N4)ccn1 [Compound 33] | < 50 |
| COc1ncc(-c2n[nH]c3cc4c(cc23)CN(CCc2cccc(Cl)c2)CC(=O)N4)cn1 [Compound 107] | 250 to 1000 |
| COc1ccc(-c2n[nH]c3cc4c(cc23)CN(Cc2cccc(Cl)c2)C(=O)N4)cn1 [Compound 75] | < 50 |
| Cc1cc(-c2n[nH]c3cc4c(cc23)CN([C@@H]2CCCN(Cc3cnccc3C)C2)C(=O)N4)ccn1 [Compound 183] | 50 to 250 |
| O=C1Nc2cc3[nH]nc(-c4ccncc4)c3cc2CN1Cc1cccc(Cl)c1 [Compound 3] | < 50 |
| Cc1cc(-c2n[nH]c3cc4c(cc23)CN([C@@H]2CCCN(CCc3ccccc3)C2)C(=O)N4)ccn1 [Compound 145] | < 50 |
| Cc1cc(-c2n[nH]c3cc4c(cc23)CN(CCNCc2ccccc2)C(=O)N4)ccn1 [Compound 149] | < 50 |
| COc1ncc(-c2n[nH]c3cc4c(cc23)CN([C@H](C)c2cccc(Cl)c2)C(=O)N4)cn1 [Compound 71] | < 50 |
| COc1ccc(-c2n[nH]c3cc4c(cc23)CN(CCc2ccc(F)cc2)C(=O)N4)cn1 [Compound 79] | < 50 |
| [2H]C([2H])(c1ccccc1)N1CCC[C@@H](N2Cc3cc4c(-c5ccnc(C)c5)n[nH]c4cc3NC2=O)C1 [Compound 148] | < 50 |
| COc1ncc(-c2n[nH]c3cc4c(cc23)CN(Cc2cccc(C#N)c2)C(=O)N4)cn1 [Compound 125] | < 50 |
| Nc1ncc(-c2n[nH]c3cc4c(cc23)CN(Cc2cccc(Cl)c2)C(=O)N4)cn1 [Compound 93] | < 50 |
| Cc1cc(-c2n[nH]c3cc4c(cc23)CN([C@H](C)c2ccc(Cl)cc2)C(=O)N4)ccn1 [Compound 16] | < 50 |
| Cc1cc(-c2n[nH]c3cc4c(cc23)CN(Cc2ccc(CC#N)cc2)C(=O)N4)ccn1 [Compound 65] | < 50 |

| Structure (SMILES) | IC50 [nM] |
| --- | --- |
| COc1cccc(F)c1CN1CCC(N2Cc3cc4c(-c5ccnnc5)n[nH]c4cc3NC2=O)CC1 [Compound 116] | 50 to 250 |
| Cc1cc(-c2n[nH]c3cc4c(cc23)CN([C@@H]2CCCN(CCC(F)(F)F)C2)C(=O)N4)ccn1 [Compound 178] | < 50 |
| Cc1cc(-c2n[nH]c3cc4c(cc23)CN([C@@H]2CCCN(Cc3cccnc3C(F)(F)F)C2)C(=O)N4)ccn1 [Compound 161] | < 50 |
| Cc1cc(-c2n[nH]c3cc4[nH]c(=O)c(Cc5ccc(F)cc5)cc4cc23)ccn1 [Compound 21] | 50 to 250 |
| Cc1cc(-c2n[nH]c3cc4c(cc23)CN(Cc2ccc(F)cc2F)C(=O)N4)ccn1 [Compound 11] | < 50 |
| C[C@H](c1ccc(Cl)cc1)N1Cc2cc3c(-c4ccnnc4)n[nH]c3cc2NC1=O [Compound 115] | < 50 |
| O=C1Nc2cc3[nH]nc(-c4cccnc4)c3cc2CN1Cc1cccc(Cl)c1 [Compound 57] | < 50 |
| Cc1cc(-c2n[nH]c3cc4c(cc23)CN([C@@H]2CCCN(Cc3ccc(F)cc3)C2)C(=O)N4)ccn1 [Compound 151] | < 50 |
| Cc1cc(-c2n[nH]c3cc4c(cc23)CN(C2CCOCC2)C(=O)N4)ccn1 [Compound 44] | < 50 |
| Cc1cc(-c2n[nH]c3cc4c(cc23)CN([C@@H]2CCCN(CC3(C)CC3)C2)C(=O)N4)ccn1 [Compound 182] | 50 to 250 |
| Cc1cc(-c2n[nH]c3cc4c(cc23)CN([C@@H]2CCCN(Cc3ccccn3)C2)C(=O)N4)ccn1 [Compound 171] | 50 to 250 |
| Cc1cc(-c2n[nH]c3cc4c(cc23)CN([C@@H]2CCCN(CC3CC3)C2)C(=O)N4)ccn1 [Compound 62] | 50 to 250 |
| Cc1cc(-c2n[nH]c3cc4c(cc23)CN(Cc2ccc(F)cc2)C(=O)N4)ccn1 [Compound 30] | < 50 |
| Cc1cc(-c2n[nH]c3cc4c(cc23)CN([C@H](CO)c2cccc(Cl)c2)C(=O)N4)ccn1 [Compound 26] | < 50 |
| COc1ncc(-c2n[nH]c3cc4c(cc23)CN(Cc2ccc(F)cc2F)C(=O)N4)cn1 [Compound 99] | < 50 |
| O=C1Nc2cc3[nH]nc(-c4ccccn4)c3cc2CN1Cc1cccc(Cl)c1 [Compound 91] | 50 to 250 |
| Cc1cc(-c2n[nH]c3cc4c(cc23)CN([C@@H]2CCCN(C(C)c3cccc(Cl)c3)C2)C(=O)N4)ccn1 (some centres unmarked) [Compound 180] | 50 to 250 |
| COc1ncc(-c2n[nH]c3cc4c(cc23)CN(Cc2ccc(F)cc2)C(=O)N4)cn1 [Compound 72] | < 50 |
| COc1ccc(-c2n[nH]c3cc4c(cc23)CN([C@H](C)c2cccc(Cl)c2)C(=O)N4)cn1 [Compound 74] | 50 to 250 |
| Cc1cc(-c2n[nH]c3cc4c(cc23)CN([C@@H]2CCCN(Cc3cc(F)ccc3F)C2)C(=O)N4)ccn1 [Compound 187] | < 50 |

Same assay, conditions: In vitro, ERK2 enzyme 0.47 ng/μL, 100 μM ATP

| Structure (SMILES) | IC50 [nM] |
| --- | --- |
| O=C1Nc2cc3[nH]nc(-c4ccc(N5CCOCC5)nc4)c3cc2CN1Cc1cccc(Cl)c1 [Compound 231] | < 50 |
| Cc1cc(-c2n[nH]c3cc4c(cc23)CN([C@@H]2CCN(c3cccc(Cl)c3)C2)C(=O)N4)ccn1 [Compound 249] | 50 to 250 |
| COc1cc(-c2n[nH]c3cc4c(cc23)CN([C@@H]2CN(CC(F)(F)F)C[C@H]2c2ccccc2)C(=O)N4)ccn1 [Compound 375] | 50 to 250 |
| Cc1cc(-c2n[nH]c3cc4c(cc23)CN([C@@H]2CN(CC(F)(F)F)C[C@H]2C(C)C)C(=O)N4)ccn1 (mixture of isomers) [Compound 322] | 50 to 250 |
| COc1ccc(-c2n[nH]c3cc4c(cc23)CN([C@H]2CCCN(Cc3ccc(F)cc3F)C2)C(=O)N4)cn1 [Compound 369] | 250 to 1000 |
| Cc1cc(-c2n[nH]c3cc4c(cc23)CN([C@@H]2CN(CC(F)(F)F)C[C@H]2c2ccc(F)cc2)C(=O)N4)ccn1 (racemic) [Compound 300] | < 50 |
| Cc1cc(-c2n[nH]c3cc4c(cc23)CN([C@@H]2CN(CCC#N)C[C@H]2c2ccccc2)C(=O)N4)ccn1 (mixture of isomers) [Compound 356] | < 50 |
| Cc1cnccc1-c1n[nH]c2cc3[nH]c(=O)c(C(C)c4ccccc4)cc3cc12 (centres unmarked) [Compound 343] | 50 to 250 |
| Cc1cc(-c2n[nH]c3cc4c(cc23)CN(CC2CCC2)C(=O)N4)ccn1 [Compound 253] | < 50 |
| Cc1cc(-c2n[nH]c3cc4c(cc23)CN(C2CCC(F)(F)CC2)C(=O)N4)ccn1 [Compound 224] | < 50 |
| Cc1cc(-c2n[nH]c3cc4[nH]c(=O)c(C(C)c5ccc(F)cc5F)cc4cc23)ccn1 (centres unmarked) [Compound 312] | 50 to 250 |
| Cc1cc(-c2n[nH]c3cc4c(cc23)CN(C(C)c2nc(C)c(C)s2)C(=O)N4)ccn1 (centres unmarked) [Compound 286] | < 50 |
| Cc1cc(-c2n[nH]c3cc4c(cc23)CN(Cc2cc(F)cc(F)c2)C(=O)N4)cc(C)n1 [Compound 225] | < 50 |
| Cc1cc(-c2n[nH]c3cc4c(cc23)CN([C@@H]2CCCN(c3cccc(C)n3)C2)C(=O)N4)ccn1 [Compound 238] | 50 to 250 |
| CC(c1ccccc1)c1cc2cc3c(-c4ccc(N5CCOCC5)nc4)n[nH]c3cc2[nH]c1=O (centres unmarked) [Compound 324] | 50 to 250 |
| Cc1ncc(-c2n[nH]c3cc4c(cc23)CN([C@@H]2CCN(CC(F)(F)F)C2)C(=O)N4)cn1 [Compound 282] | < 50 |

| Structure (SMILES) | IC50 [nM] |
| --- | --- |
| Cc1ccc(-c2n[nH]c3cc4c(cc23)CN([C@@H]2CCCN(Cc3ccc(F)cc3F)C2)C(=O)N4)cn1 [Compound 284] | < 50 |
| CC(c1ccccc1)c1cc2cc3c(N4CCN(C)CC4)n[nH]c3cc2[nH]c1=O (centres unmarked) [Compound 358] | 50 to 250 |
| Cc1cc(-c2n[nH]c3cc4c(cc23)CN([C@@H]2CN(CC#N)C[C@H]2c2ccccc2)C(=O)N4)ccn1 (mixture of isomers) [Compound 366] | < 50 |
| Cc1cc(-c2n[nH]c3cc4c(cc23)CN([C@@H]2CN(C)C[C@H]2c2ccccc2F)C(=O)N4)cc(C)n1 (racemic) [Compound 306] | < 50 |
| Cc1cc(-c2n[nH]c3cc4c(cc23)CN(Cc2ccccc2Cl)C(=O)N4)ccn1 [Compound 217] | < 50 |
| Cc1cc(-c2n[nH]c3cc4c(cc23)CN([C@H]2CCCN(CC(F)(F)F)C2)C(=O)N4)ccn1 [Compound 309] | 50 to 250 |
| Cc1cc(-c2n[nH]c3cc4c(cc23)CN([C@@H]2CN(C)C[C@H]2C(C)C)C(=O)N4)ccn1 (mixture of isomers) [Compound 327] | 250 to 1000 |
| Cc1cc(-c2n[nH]c3cc4c(cc23)CN(Cc2nc(C)c(C)s2)C(=O)N4)ccn1 [Compound 228] | < 50 |
| Cc1cc(-c2n[nH]c3cc4c(cc23)CN([C@@H]2CN(C(C)C)C[C@H]2c2ccccc2)C(=O)N4)ccn1 (racemic) [Compound 279] | < 50 |
| Cc1cc(-c2n[nH]c3cc4c(cc23)CN([C@H]2CN(CC(F)(F)F)C[C@@H]2c2ccccc2)C(=O)N4)ccn1 [Compound 303] | 250 to 1000 |
| Cc1cc(-c2n[nH]c3cc4c(cc23)CN(CC2CCCC2)C(=O)N4)ccn1 [Compound 212] | < 50 |
| Cc1cc(-c2n[nH]c3cc4c(cc23)CN([C@@H]2CCN(C)C2)C(=O)N4)ccn1 [Compound 255] | < 50 |
| Cc1cc(-c2n[nH]c3cc4c(cc23)CN(CCC2CCOCC2)C(=O)N4)ccn1 [Compound 220] | < 50 |
| Cc1cc(-c2n[nH]c3cc4c(cc23)CN(C2CCOC(C)(C)C2)C(=O)N4)ccn1 (centres unmarked) [Compound 219] | < 50 |
| CC(c1ccccc1)c1cc2cc3c(N4CCOCC4)n[nH]c3cc2[nH]c1=O (centres unmarked) [Compound 345] | < 50 |
